From publication PMC11589570, “Critical assessment of LC3/GABARAP ligands used for degrader development and ligandability of LC3/GABARAP binding pockets” (Nature Communications, 2024)
Several values for one entry are separate records, joined by “and”; a condition that tells them apart may be missing. Equal values may be shown once. Entries after “also recorded” stand apart in the source; their conditions may differ.

What was measured:
[1] = target: LC3A (Homo sapiens, UniProt Q9H492); experiment: Isothermal titration calorimetry (ITC); format: binding; conditions: LC3A
[2] = target: T1, NanoLuc-fusion full-length LC3A (Homo sapiens, UniProt Q9H492); experiment: NanoBRET cellular target engagement assay in HEK293T cells; format: cell-based; conditions: LC3A; 1 µM tracer; compound 4 for tracer 16, compound 3 for tracer 17
T1 construct: a fluorescent donor (in this case full length LC3A and LC3B); expressed in transfected cells; host or cells: HEK293T (ATCC; CRL-11268)
Experimental: (§1) NanoBRET cellular target engagement assay: Constructs contained the cDNA of full-length LC3A and LC3B cloned in frame with an N-terminal NanoLuc-fusion. Plasmids were transfected into HEK293T (ATCC; CRL-11268) cells using FuGENE HD (Promega, E2312) and proteins were allowed to express for 20 h. 10O5 and 8F20-based tracers were titrated to the protein as depicted in Supplementary Fig. 4d. For competition experiments, 1 µM of the tracers was pipetted into white 384-well plates (Greiner 781 207) using an Echo 550 acoustic dispenser (Labcyte) containing LC3A/LC3B expressing transfected cells at a density of 2.5 × 10^5 cells/mL in Opti-MEM without phenol red (Life Technologies). The system was allowed to equilibrate for 2 h at 37 °C and 5% CO2 prior to BRET measurements. To measure BRET, NanoBRET NanoGlo Substrate + Extracellular NanoLuc Inhibitor (Promega, N2540) was added as per the manufacturer’s protocol, and filtered luminescence was measured on a PHERAstar plate reader (BMG Labtech) equipped with a luminescence filter pair (450 nm BP filter (donor) and 610 nm LP filter (acceptor)). Competitive displacement data were then plotted using GraphPad Prism 9.3 software using a normalized 3-parameter curve fit. A detailed step-by-step protocol for this assay is described in Schwalm..

[3] = target: T2, NanoLuc-fusion full-length LC3B (Homo sapiens, UniProt Q9GZQ8); experiment: as above; format: cell-based; conditions: LC3B; 1 µM tracer; compound 4 for tracer 16, compound 3 for tracer 17
T2 construct: a fluorescent donor (in this case full length LC3A and LC3B); expressed in transfected cells; host or cells: HEK293T (ATCC; CRL-11268)
Experimental: as §1

[4] = tested on: U2OS cells; experiment: Cell growth assay (IncuCyte confluence over 72 h); format: cell-based; parameters: key to U2OS cell growth: % of well area covered by cells (confluence); conditions: for U2OS cell growth: listed as 8F20
Experimental: Cell growth assay: Cell confluence (phase) from RPE1 (hTERT RPE-1, ATCC CLR_4000) or U2OS (ATCC, HTB-96) cell lines were monitored over time with the IncuCyte S3 (Sartiorius, Germany) in 384-well plates in 50 ul DMEM media, supplemented with 10% Fetal Bovine Serum (FBS) 1% penicillin/Streptomycin and incubated 24 h before treatment. Experiment was performed as described in Cano-Franco et al.. […] Cell confluence is represented as % of area covered by cells. Each data point represents the average ratio or confluence obtained from three individual wells of the plate.

[5] = Cell viability measurements; format: cell-based; parameters: Cell viability: scale not given here; conditions: two replicate columns; for Cell viability: listed as 8F20
Excerpt: 1 Source data for Supplementary Fig. 8a-f are provided as a Source Data file.

Cc1ccc(C(=O)N(CCCN)[C@@H](c2nc3cc(Cl)ccc3c(=O)n2Cc2ccccc2)C(C)C)cc1 [compound 3, (R)-N-(3-aminopropyl)-N-(1-(3-benzyl-7-chloro-4-oxo-3,4-dihydroquinazolin-2-yl)−2-methylpropyl)−4-methylbenzamide]
outcome of ITC titration [1]: did not yield significant binding heats
NanoBRET signal / tracer displacement [2]: No displacement
NanoBRET signal / tracer displacement [3]: No displacement
U2OS cell growth ([4]; 100 nM, time 34 h): 22.2522 and 20.3197 and 25.5047
U2OS cell growth ([4]; 100 nM, time 36 h): 25.043 and 22.9919 and 27.5453
U2OS cell growth ([4]; 100 nM, time 38 h): 34.8117 and 27.203 and 36.419
U2OS cell growth ([4]; 100 nM, time 40 h): 28.7682 and 25.0593 and 31.2523
U2OS cell growth ([4]; 100 nM, time 42 h): 28.8457 and 26.5057 and 32.2617
U2OS cell growth ([4]; 100 nM, time 44 h): 31.3439 and 34.6421 and 31.7152
U2OS cell growth ([4]; 100 nM, time 46 h): 34.3656 and 30.4353 and 36.3708
U2OS cell growth ([4]; 500 nM, time 34 h): 26.6194 and 31.3484 and 27.2425
U2OS cell growth ([4]; 500 nM, time 36 h): 31.7612 and 33.804 and 33.4668
U2OS cell growth ([4]; 500 nM, time 38 h): 33.118 and 34.4569 and 30.251
U2OS cell growth ([4]; 500 nM, time 40 h): 39.6842 and 38.1992 and 33.6035
U2OS cell growth ([4]; 500 nM, time 42 h): 36.1441 and 40.2893 and 34.3307
U2OS cell growth ([4]; 500 nM, time 44 h): 39.8612 and 39.5559 and 35.4494
U2OS cell growth ([4]; 1 uM, time 34 h): 32.3197 and 36.2486 and 28.9643
U2OS cell growth ([4]; 1 uM, time 36 h): 35.3333 and 38.6378 and 32.1258
U2OS cell growth ([4]; 1 uM, time 38 h): 37.1941 and 39.9036 and 33.4921
U2OS cell growth ([4]; 1 uM, time 40 h): 42.2479 and 44.6121 and 35.334
U2OS cell growth ([4]; 1 uM, time 42 h): 42.2672 and 42.3728 and 37.7313
U2OS cell growth ([4]; 1 uM, time 44 h): 41.5555 and 43.3678 and 38.4367
U2OS cell growth ([4]; 1 uM, time 46 h): 37.0733
U2OS cell growth ([4]; 3 uM, time 34 h): 24.9204 and 26.3201 and 25.7719
U2OS cell growth ([4]; 3 uM, time 36 h): 25.7351 and 27.3161 and 28.6407
U2OS cell growth ([4]; 3 uM, time 38 h): 25.9027 and 26.3122 and 27.7775
U2OS cell growth ([4]; 3 uM, time 40 h): 26.2298 and 26.2214 and 29.7472
U2OS cell growth ([4]; 3 uM, time 42 h): 25.5977 and 26.3382 and 29.6536
U2OS cell growth ([4]; 3 uM, time 44 h): 26.2297 and 25.3695 and 28.5871
U2OS cell growth ([4]; 3 uM, time 46 h): 24.6522 and 24.6058 and 27.1829
U2OS cell growth ([4]; 5 uM, time 34 h): 28.2897 and 22.3175 and 29.2635
U2OS cell growth ([4]; 5 uM, time 36 h): 23.4225 and 23.0973 and 22.2621
U2OS cell growth ([4]; 5 uM, time 38 h): 33.3374 and 20.2415 and 36.6497
U2OS cell growth ([4]; 5 uM, time 40 h): 36.8034 and 23.7173 and 40.6411
U2OS cell growth ([4]; 5 uM, time 42 h): 29.192 and 24.8481 and 31.1144
U2OS cell growth ([4]; 5 uM, time 44 h): 25.7303 and 24.4958 and 26.8332
U2OS cell growth ([4]; 5 uM, time 46 h): 31.8475 and 23.3649 and 37.1335
effect on cell growth (confluence) ([4]; U2OS, 72 h): significant growth inhibition in all tested concentrations; also recorded: strongly suppressed cellular growth
viability at 20 µM ([5]; log concentration [M] -4.69897): 0.689%
Cell viability ([5]; log concentration [M] -4.69897): 1.283
viability at 7.5 µM ([5]; log concentration [M] -5.12494): 91.3%
Cell viability ([5]; log concentration [M] -5.12494): 92.2351
viability at 2.5 µM ([5]; log concentration [M] -5.60206): 96.5%
Cell viability ([5]; log concentration [M] -5.60206): 100.107
viability at […] ([5]; log concentration [M] -6.00436): 93.4%
Cell viability ([5]; log concentration [M] -6.00436): 93.5465
viability at 0.3 µM ([5]; log concentration [M] -6.52288): 103%
Cell viability ([5]; log concentration [M] -6.52288): 93.076
viability at 0.125 µM ([5]; log concentration [M] -6.90309): 105%
Cell viability ([5]; log concentration [M] -6.90309): 93.9495
viability at 0.05 µM ([5]; log concentration [M] -7.30103): 102%
Cell viability ([5]; log concentration [M] -7.30103): 103.3
viability at 0.01625 µM ([5]; log concentration [M] -7.78915): 96.5%
Cell viability ([5]; log concentration [M] -7.78915): 90.0205
viability at […] ([5]; log concentration [M] -8.06399): 103%
Cell viability ([5]; log concentration [M] -8.06399): 92.6947
viability at 0.005 µM ([5]; log concentration [M] -8.30103): 99.5%
Cell viability ([5]; log concentration [M] -8.30103): 91.472
viability at 0.0021 µM ([5]; log concentration [M] -8.67778): 99.1%
Cell viability ([5]; log concentration [M] -8.67778): 90.5247
